# Data as given in paper PMC11480411, “Mucosal sugars delineate pyrazine vs pyrazinone autoinducer signaling in Klebsiella oxytoca” (Nature Communications, 2024).
# Several values for one entry are separate records, joined by “and”; a condition that tells them apart may be missing. Equal entries are not always repeated.
# Experiments:
# Type in all cases: cell-based
# MC5R = molecular target: T1, MC5R (Homo sapiens, UniProt P33032); test: PRESTO-Tango GPCR screen; settings: 100 µM
# T1 construct: purchased PRESTO-Tango GPCR kit (Roth lab / Addgene)
# Procedure: (§1) The PRESTO-Tango analyses were performed as previously published. Briefly, HTLA cells, a HEK293 cell line that stably expresses β-arrestin-TEV and tTA-Luciferase (a kind gift from Gilad Barnea, Brown University), were plated in 96-well tissue culture plates (Eppendorf) in DMEM containing 10% FBS and 1% Penicillin/Streptomycin. One day after plating (after reaching approximately 90% confluence), 200 ng per well GPCR-Tango plasmids[37] in 20 μL DMEM were individually mixed with 400 ng polyethylenimine (Polysciences) in an equal volume of DMEM and incubated for 20 min at room temperature before adding the transfection mixture to the HTLA cells. 16-24 h after transfection, medium was replaced with 180 μL fresh DMEM containing 1% Penicillin/Streptomycin and 10 mM HEPES and 20 μL of 3 or 3-Homo to reach a final concentration of 100 μM. Supernatants were aspirated 20 h after stimulation and 50 μl per well of Bright-Glo solution (Promega) diluted 20-fold with PBS containing 20 mM HEPES was added into each well. After 15 min incubation at room temperature, luminescence was quantified using a Spectramax i3x microplate reader (Molecular Devices). Activation fold for each sample was calculated by dividing relative luminescence units (RLU) for each condition by RLUs from PBS control. Dose response curves of each chemical were performed in a similar way with varying the ligand concentration from 10^−4 M to 10^−15 M.
# FPR3 = molecular target: T2, FPR3 (Homo sapiens, UniProt P25089); test: PRESTO-Tango GPCR screen; settings: 100 µM
# T2 construct: purchased PRESTO-Tango GPCR kit (Roth lab / Addgene)
# Procedure: as §1
# GPR18 = molecular target: T3, GPR18 (Homo sapiens, UniProt Q14330); test: PRESTO-Tango GPCR screen; settings: 100 µM
# T3 construct: purchased PRESTO-Tango GPCR kit (Roth lab / Addgene)
# Procedure: as §1
# AVPR2 = molecular target: T4, AVPR2 (Homo sapiens, UniProt P30518); test: PRESTO-Tango GPCR screen; settings: 100 µM
# T4 construct: purchased PRESTO-Tango GPCR kit (Roth lab / Addgene)
# Procedure: as §1
# HCA2 = molecular target: T5, HCA2 (Homo sapiens, UniProt Q8TDS4); test: PRESTO-Tango GPCR screen; settings: 100 µM
# T5 construct: purchased PRESTO-Tango GPCR kit (Roth lab / Addgene)
# Procedure: as §1
# P2RY2 = molecular target: T6, P2RY2 (Homo sapiens, UniProt P41231); test: PRESTO-Tango GPCR screen; settings: 100 µM
# T6 construct: purchased PRESTO-Tango GPCR kit (Roth lab / Addgene)
# Procedure: as §1
# GPR143 = molecular target: T7, GPR143 (Homo sapiens, UniProt P51810); test: PRESTO-Tango GPCR screen; settings: 100 µM
# T7 construct: purchased PRESTO-Tango GPCR kit (Roth lab / Addgene)
# Procedure: as §1
# SSTR5 = molecular target: T8, SSTR5 (Homo sapiens, UniProt P35346); test: PRESTO-Tango GPCR screen; settings: 100 µM
# T8 construct: purchased PRESTO-Tango GPCR kit (Roth lab / Addgene)
# Procedure: as §1
# GPR101 = molecular target: T9, GPR101 (Homo sapiens, UniProt Q96P66); test: PRESTO-Tango GPCR screen; settings: 100 µM
# T9 construct: purchased PRESTO-Tango GPCR kit (Roth lab / Addgene)
# Procedure: as §1
# CCR6 = molecular target: T10, CCR6 (Homo sapiens, UniProt P51684); test: PRESTO-Tango GPCR screen; settings: 100 µM
# T10 construct: purchased PRESTO-Tango GPCR kit (Roth lab / Addgene)
# Procedure: as §1
# APJ = molecular target: T11, APJ (Homo sapiens, UniProt P35414); test: PRESTO-Tango GPCR screen; settings: 100 µM
# T11 construct: purchased PRESTO-Tango GPCR kit (Roth lab / Addgene)
# Procedure: as §1
# GPR77 = molecular target: T12, GPR77 (Homo sapiens, UniProt Q9P296); test: PRESTO-Tango GPCR screen; settings: 100 µM
# T12 construct: purchased PRESTO-Tango GPCR kit (Roth lab / Addgene)
# Procedure: as §1
# GPBA = molecular target: T13, GPBA (Homo sapiens, UniProt Q8TDU6); test: PRESTO-Tango GPCR screen; settings: 100 µM
# T13 construct: purchased PRESTO-Tango GPCR kit (Roth lab / Addgene)
# Procedure: as §1
# GPR146 = molecular target: T14, GPR146 (Homo sapiens, UniProt Q96CH1); test: PRESTO-Tango GPCR screen; settings: 100 µM
# T14 construct: purchased PRESTO-Tango GPCR kit (Roth lab / Addgene)
# Procedure: as §1
# GPR115 = molecular target: T15, GPR115 (Homo sapiens, UniProt Q8IZF3); test: PRESTO-Tango GPCR screen; settings: 100 µM
# T15 construct: purchased PRESTO-Tango GPCR kit (Roth lab / Addgene)
# Procedure: as §1
# P2RY4 = molecular target: T16, P2RY4 (Homo sapiens, UniProt P51582); test: PRESTO-Tango GPCR screen; settings: 100 µM
# T16 construct: purchased PRESTO-Tango GPCR kit (Roth lab / Addgene)
# Procedure: as §1
# VIPR2 = molecular target: T17, VIPR2 (Homo sapiens, UniProt P41587); test: PRESTO-Tango GPCR screen; settings: 100 µM
# T17 construct: purchased PRESTO-Tango GPCR kit (Roth lab / Addgene)
# Procedure: as §1
# GPR160 = molecular target: T18, GPR160 (Homo sapiens, UniProt Q9UJ42); test: PRESTO-Tango GPCR screen; settings: 100 µM
# T18 construct: purchased PRESTO-Tango GPCR kit (Roth lab / Addgene)
# Procedure: as §1
# HRH1 = molecular target: T19, HRH1 (Homo sapiens, UniProt P35367); test: PRESTO-Tango GPCR screen and dose-response; settings: for HRH1 dose-response raw reporter signal (Fig. 5b source data): replicate wells
# T19 construct: expressed in transfected cells; host or cells: HTLA cells (HEK293 line stably expressing β-arrestin-TEV and tTA-Luciferase)
# Procedure, shortened: (§2)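 HEK293 HTLA line (stable β-arrestin-TEV, tTA-luciferase); receptor-Tango transient transfection, PEI; 20 h compound exposure at 100 μM final; luciferase luminescence; fold vs PBS. Dose curves 10^−4–10^−15 M.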
# HRH2 = molecular target: T20, HRH2 (Homo sapiens, UniProt P25021); test: PRESTO-Tango GPCR screen and dose-response; settings: for HRH2 dose-response raw reporter signal (Fig. 5b source data): replicate wells
# T20 construct: expressed in transfected cells; host or cells: HTLA cells (HEK293 line stably expressing β-arrestin-TEV and tTA-Luciferase)
# Procedure, shortened: as §2
# T19 sequence (P35367 whole entry): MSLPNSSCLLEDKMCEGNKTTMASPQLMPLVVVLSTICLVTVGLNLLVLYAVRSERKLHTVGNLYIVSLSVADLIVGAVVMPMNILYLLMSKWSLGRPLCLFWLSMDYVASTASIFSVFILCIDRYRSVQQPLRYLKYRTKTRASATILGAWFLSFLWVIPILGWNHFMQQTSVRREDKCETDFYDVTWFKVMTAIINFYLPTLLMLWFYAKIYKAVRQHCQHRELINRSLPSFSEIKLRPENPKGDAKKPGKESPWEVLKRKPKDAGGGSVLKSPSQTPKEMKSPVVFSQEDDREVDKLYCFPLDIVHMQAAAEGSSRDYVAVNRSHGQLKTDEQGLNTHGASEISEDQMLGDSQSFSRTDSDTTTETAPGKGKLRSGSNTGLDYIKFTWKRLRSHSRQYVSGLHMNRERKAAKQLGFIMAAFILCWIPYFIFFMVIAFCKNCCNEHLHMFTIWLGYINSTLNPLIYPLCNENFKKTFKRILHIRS
# T20 sequence (P25021 whole entry): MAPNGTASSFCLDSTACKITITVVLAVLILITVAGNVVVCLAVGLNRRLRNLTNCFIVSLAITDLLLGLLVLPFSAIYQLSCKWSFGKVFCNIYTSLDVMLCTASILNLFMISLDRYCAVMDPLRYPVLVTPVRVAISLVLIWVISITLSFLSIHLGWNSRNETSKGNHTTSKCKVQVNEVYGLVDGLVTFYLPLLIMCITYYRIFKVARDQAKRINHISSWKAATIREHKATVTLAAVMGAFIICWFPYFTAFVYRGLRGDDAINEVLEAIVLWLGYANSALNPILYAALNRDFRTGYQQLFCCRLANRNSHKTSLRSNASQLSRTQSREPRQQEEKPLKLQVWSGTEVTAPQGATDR
# T5 sequence (Q8TDS4 whole entry): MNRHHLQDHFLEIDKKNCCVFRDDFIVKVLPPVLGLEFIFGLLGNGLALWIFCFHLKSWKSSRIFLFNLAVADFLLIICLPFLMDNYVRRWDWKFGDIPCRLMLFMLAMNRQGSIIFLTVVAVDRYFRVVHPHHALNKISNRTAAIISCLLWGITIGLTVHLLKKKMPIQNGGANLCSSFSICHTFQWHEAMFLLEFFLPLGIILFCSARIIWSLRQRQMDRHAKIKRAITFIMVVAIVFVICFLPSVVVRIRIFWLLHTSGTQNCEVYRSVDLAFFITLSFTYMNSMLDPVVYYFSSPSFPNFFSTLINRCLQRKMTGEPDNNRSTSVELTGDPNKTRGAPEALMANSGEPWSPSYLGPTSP
# T9 sequence (Q96P66 whole entry): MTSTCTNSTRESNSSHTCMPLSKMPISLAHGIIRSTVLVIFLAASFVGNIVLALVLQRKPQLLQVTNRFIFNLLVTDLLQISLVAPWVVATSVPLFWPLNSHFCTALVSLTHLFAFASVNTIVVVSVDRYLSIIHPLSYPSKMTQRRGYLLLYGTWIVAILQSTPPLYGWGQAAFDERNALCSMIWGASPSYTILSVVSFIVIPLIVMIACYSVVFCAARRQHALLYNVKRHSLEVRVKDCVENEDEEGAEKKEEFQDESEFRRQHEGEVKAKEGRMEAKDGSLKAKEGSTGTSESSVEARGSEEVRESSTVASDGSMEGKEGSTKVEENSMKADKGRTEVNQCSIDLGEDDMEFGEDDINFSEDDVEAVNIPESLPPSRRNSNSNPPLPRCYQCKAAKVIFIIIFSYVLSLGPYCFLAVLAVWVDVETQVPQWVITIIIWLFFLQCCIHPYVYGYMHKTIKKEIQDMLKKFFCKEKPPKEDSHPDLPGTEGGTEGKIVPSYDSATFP
# T13 sequence (Q8TDU6 whole entry): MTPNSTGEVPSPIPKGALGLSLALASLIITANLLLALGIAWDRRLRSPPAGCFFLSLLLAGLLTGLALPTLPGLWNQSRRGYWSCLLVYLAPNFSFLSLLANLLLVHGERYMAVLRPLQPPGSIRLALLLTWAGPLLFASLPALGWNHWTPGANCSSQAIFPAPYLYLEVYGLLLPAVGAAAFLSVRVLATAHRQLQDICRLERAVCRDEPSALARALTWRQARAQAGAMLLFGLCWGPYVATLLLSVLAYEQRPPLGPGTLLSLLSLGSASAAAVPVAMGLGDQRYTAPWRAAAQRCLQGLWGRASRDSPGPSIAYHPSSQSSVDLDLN
# T14 sequence (Q96CH1 whole entry): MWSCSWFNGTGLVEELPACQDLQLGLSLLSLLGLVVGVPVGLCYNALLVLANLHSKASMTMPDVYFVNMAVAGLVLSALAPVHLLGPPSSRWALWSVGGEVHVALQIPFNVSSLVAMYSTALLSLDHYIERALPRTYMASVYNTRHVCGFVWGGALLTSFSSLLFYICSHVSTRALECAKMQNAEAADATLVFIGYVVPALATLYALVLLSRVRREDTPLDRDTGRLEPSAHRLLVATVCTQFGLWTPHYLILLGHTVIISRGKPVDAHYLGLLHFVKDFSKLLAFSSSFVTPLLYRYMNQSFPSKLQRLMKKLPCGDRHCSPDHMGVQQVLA
# T10 sequence (P51684 whole entry): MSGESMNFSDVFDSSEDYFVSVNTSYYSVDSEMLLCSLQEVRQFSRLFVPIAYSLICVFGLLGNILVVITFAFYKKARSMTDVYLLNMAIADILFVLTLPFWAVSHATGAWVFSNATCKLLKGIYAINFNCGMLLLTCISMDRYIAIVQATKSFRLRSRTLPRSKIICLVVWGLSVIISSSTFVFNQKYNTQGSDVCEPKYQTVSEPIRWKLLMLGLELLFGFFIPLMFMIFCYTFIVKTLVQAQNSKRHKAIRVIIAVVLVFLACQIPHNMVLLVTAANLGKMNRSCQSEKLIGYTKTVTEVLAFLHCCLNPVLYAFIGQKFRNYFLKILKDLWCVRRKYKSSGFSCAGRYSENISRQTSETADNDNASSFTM
# T8 sequence (P35346 whole entry): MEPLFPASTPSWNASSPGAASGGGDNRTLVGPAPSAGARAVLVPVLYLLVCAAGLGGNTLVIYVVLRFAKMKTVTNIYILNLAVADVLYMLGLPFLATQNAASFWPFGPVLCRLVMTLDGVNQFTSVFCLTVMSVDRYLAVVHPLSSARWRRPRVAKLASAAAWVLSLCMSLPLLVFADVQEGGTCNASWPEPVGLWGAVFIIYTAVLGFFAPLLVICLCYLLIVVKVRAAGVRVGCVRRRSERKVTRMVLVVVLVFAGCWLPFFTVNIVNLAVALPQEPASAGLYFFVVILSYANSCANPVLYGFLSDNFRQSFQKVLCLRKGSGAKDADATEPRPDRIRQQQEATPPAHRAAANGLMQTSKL
# T18 sequence (Q9UJ42 whole entry): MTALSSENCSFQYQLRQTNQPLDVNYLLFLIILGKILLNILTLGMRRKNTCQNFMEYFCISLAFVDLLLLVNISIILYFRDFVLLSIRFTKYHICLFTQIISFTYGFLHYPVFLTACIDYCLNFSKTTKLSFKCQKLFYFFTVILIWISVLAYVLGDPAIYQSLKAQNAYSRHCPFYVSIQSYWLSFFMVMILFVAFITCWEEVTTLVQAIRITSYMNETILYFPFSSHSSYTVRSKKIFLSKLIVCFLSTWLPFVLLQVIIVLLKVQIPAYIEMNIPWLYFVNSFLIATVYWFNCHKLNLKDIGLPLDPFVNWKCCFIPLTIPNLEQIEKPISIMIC
# T6 sequence (P41231 whole entry): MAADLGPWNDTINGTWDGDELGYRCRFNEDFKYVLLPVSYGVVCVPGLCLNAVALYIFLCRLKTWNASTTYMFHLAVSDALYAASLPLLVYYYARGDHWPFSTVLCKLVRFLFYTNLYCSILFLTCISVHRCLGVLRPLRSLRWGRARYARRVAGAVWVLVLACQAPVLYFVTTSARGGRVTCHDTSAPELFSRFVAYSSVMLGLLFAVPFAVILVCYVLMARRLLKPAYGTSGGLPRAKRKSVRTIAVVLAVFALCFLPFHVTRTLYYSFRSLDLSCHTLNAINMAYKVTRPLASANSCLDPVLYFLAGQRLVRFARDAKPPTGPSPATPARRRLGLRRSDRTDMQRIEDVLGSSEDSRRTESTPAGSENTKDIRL
# T15 sequence (Q8IZF3 22-695): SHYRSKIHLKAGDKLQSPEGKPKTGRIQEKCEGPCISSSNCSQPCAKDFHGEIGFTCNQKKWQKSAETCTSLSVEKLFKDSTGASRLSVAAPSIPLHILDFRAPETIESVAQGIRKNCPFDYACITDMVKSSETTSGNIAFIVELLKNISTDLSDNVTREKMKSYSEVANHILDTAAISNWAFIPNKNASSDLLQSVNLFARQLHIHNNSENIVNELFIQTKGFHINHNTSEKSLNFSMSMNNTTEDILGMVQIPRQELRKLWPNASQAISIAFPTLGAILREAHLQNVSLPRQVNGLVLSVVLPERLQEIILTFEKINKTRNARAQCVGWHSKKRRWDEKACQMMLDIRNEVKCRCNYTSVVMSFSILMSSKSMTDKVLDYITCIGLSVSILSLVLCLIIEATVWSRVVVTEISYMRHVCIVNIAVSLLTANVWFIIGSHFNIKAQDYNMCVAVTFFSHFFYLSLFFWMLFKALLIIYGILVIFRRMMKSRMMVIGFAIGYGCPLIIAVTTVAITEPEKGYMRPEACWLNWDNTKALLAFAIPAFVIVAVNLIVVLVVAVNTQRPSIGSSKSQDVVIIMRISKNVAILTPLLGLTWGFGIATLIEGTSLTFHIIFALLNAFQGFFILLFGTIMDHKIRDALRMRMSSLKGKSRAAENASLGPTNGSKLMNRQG
# T4 sequence (P30518 whole entry): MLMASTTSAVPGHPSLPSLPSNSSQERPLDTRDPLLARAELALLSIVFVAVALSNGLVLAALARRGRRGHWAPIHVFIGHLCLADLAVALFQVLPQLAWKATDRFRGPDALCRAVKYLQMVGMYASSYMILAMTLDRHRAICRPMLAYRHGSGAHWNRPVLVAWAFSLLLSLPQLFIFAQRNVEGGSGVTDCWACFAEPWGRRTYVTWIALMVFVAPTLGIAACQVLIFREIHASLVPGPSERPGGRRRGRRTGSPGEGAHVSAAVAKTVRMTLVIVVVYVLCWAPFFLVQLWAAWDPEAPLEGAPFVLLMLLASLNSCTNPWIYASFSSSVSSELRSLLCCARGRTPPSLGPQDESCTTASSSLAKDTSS
smiles,measurement,setting,value
CC(C)Cc1ncc(CCCCNC(=N)N)[nH]c1=O [3-Homo],GPCR activation (heatmap value),MC5R,0.4155
same,GPCR activation (heatmap value),FPR3,0.135
same,GPCR activation (heatmap value),GPR18,-0.3064
same,GPCR activation (heatmap value),AVPR2,0.2692
same,GPCR activation (heatmap value),HCA2,0.4377
same,GPCR activation (heatmap value),P2RY2,-0.0487
same,GPCR activation (heatmap value),GPR143,-0.07136
same,GPCR activation (heatmap value),SSTR5,-0.02493
same,GPCR activation (heatmap value),GPR101,-0.2435
same,GPCR activation (heatmap value),CCR6,-1.378
same,GPCR activation (heatmap value),APJ,0.4932
same,GPCR activation (heatmap value),GPR77,0.08307
same,GPCR activation (heatmap value),GPBA,-0.06085
same,GPCR activation (heatmap value),GPR146,-0.8234
same,GPCR activation (heatmap value),GPR115,-0.2915
same,GPCR activation (heatmap value),P2RY4,0.7408
same,GPCR activation (heatmap value),VIPR2,0.5382
same,GPCR activation (heatmap value),GPR160,0.53
same,GPCR activation (heatmap value),"HRH1; HRH1, 100 µM",0.1843
same,HRH1 dose-response raw reporter signal (Fig. 5b source data),HRH1; Log(10)Conc (M) -4,49786 and 49898
same,HRH1 dose-response raw reporter signal (Fig. 5b source data),HRH1; Log(10)Conc (M) -5,48910 and 46012
same,HRH1 dose-response raw reporter signal (Fig. 5b source data),HRH1; Log(10)Conc (M) -6,48701 and 46228
same,HRH1 dose-response raw reporter signal (Fig. 5b source data),HRH1; Log(10)Conc (M) -7,46626 and 44830
same,HRH1 dose-response raw reporter signal (Fig. 5b source data),HRH1; Log(10)Conc (M) -8,47613 and 46402
same,HRH1 dose-response raw reporter signal (Fig. 5b source data),HRH1; Log(10)Conc (M) -9,46045 and 44597
same,HRH1 dose-response raw reporter signal (Fig. 5b source data),HRH1; Log(10)Conc (M) -10,46658 and 45508
same,HRH1 dose-response raw reporter signal (Fig. 5b source data),HRH1; Log(10)Conc (M) -11,45821 and 45927
same,HRH1 dose-response raw reporter signal (Fig. 5b source data),HRH1; Log(10)Conc (M) -12,46189 and 46705
same,HRH1 dose-response raw reporter signal (Fig. 5b source data),HRH1; Log(10)Conc (M) -13,47852 and 47304
same,HRH1 dose-response raw reporter signal (Fig. 5b source data),HRH1; Log(10)Conc (M) -14,47480 and 47139
same,HRH1 dose-response raw reporter signal (Fig. 5b source data),HRH1; Log(10)Conc (M) -15,43822 and 41222
same,GPCR activation (heatmap value),"HRH2; HRH2, 100 µM",0.6697
same,HRH2 dose-response raw reporter signal (Fig. 5b source data),HRH2; Log(10)Conc (M) -4,77 and 94 and 47
same,HRH2 dose-response raw reporter signal (Fig. 5b source data),HRH2; Log(10)Conc (M) -5,50 and 38 and 83
same,HRH2 dose-response raw reporter signal (Fig. 5b source data),HRH2; Log(10)Conc (M) -6,68 and 53 and 83
